The values below come from US20050136472A1, “Methods for identification of ligands or modulators of 2871 receptor, a G-protein coupled receptor” (Millennium Pharmaceuticals, Inc., priority 2001, published 2005).

In experiment [1] the target is T1, 2871 receptor (Homo sapiens, UniProt Q9BY21).
T1 construct: encodes a full length 2871 receptor protein; myc (on only one of the two constructs made); expressed in transfected cells
Briefly: FLIPR calcium mobilization screening of 2871 receptor-transfected cells. To be noted: HEK293G16 cells stably transfected with 2871 receptor protein; for calcium mobilization response: concentration response; for EC50: calcium mobilization. It counts as cell-based. As for the experimental part:
The 2871 receptor proteins were expressed in either human embryonic kidney 293 (HEK293) cells or CHO cells, both of which were stably transfected with cDNA encoding the promiscuous G-protein Gal6. A pEF6 vector (invitrogene) including a cDNA of 2871 comprising only the open reading frame (ORF) or 5′-myc tagged ORF was constructed. Cells were transfected with individual construct by lipofectamine (GIBCO) and selected in the presence of 20 ug/ml Blasticidine. After 3 weeks of selection, drug resistant cells were subcloned to obtain individual clones by limited dilution. To isolate cell lines stably expressing the 2871 receptor protein, about 48 clones were typically selected and analyzed. The expression level for myc-tagged 2871 on individual clones was evaluated by using anti-myc Ab staining and FACScan analysis. The expression level for un-tagged 2871 was evaluated by mRNA analysis using standard Taqman techniques and comparing with mRNA expression of myc-tagged 2871 clones. HEK293G16 or CHOG16 cells transfected with the vector alone serve as negative controls. The clones with the highest expression of 2871 as well as good morphology and growth were used for the screening experiments.
The functional screening procedure involves the use of transfected mammalian cells (CHO, HEK293, RBL, L1.2 etc.) containing a cDNA encoding the 2871 peptides to express the receptor on the cell surface. The cells were loaded with a calcium dependent dye such as fura 2 that produces a fluorescent signal when bound to calcium.
Cells were bound to a receptor agonist, such as Ap6A. Any change in fluorescent signal was measured over a defined period of time using a Fluorescence Imaging Plate Reader (FLIPR) (See Sullivan E, et al. Measurement of [Ca^2+] using the Fluorometric Imaging Plate Reader (FLIPR). Methods Mol Biol 1999;114:125-133.)
Cells were exposed to putative ligands and/or modulators and evaluated for agonist induced calcium mobilization. Cell lines transfected with vector alone served as negative controls in the same screening procedures for agents initially identified as putative ligands and/or modulators.
(§1) 2871 receptor-transfectants (IIEK293 (60,000 cells/well) or CHO cells (30,000 cells/well)) were seeded into poly-D-lysine-coated 96-well black-wall, clear-bottom microtiter plates 24 hours prior to assay. Cells were loaded for 1 hour with 2 μM Fluo-3-AM fluorescent indicator dye (Molecular Probes) in assay buffer (Hank's balanced salt solution, 10 mM HEPES, 0.1% BSA, 2.5 mM probenecid), washed three times with assay buffer, and then applied to FLIPR for analysis.
Bio-active lipids were screened at final concentration of 200 nM and 1 μM. Nucleotides were screened at final concentration of 1 μM and 2 μM. The ratio of net change (maximum subtracting minimum) in fluorescence over baseline was used to determine agonist response. Positive responses were confirmed by checking original raw responsive curve.
Concentration response curve data were fitted by Graphpad Prism 2.1 (Graphpad software, Inc., San Diego).
(Calcium assays in cells follow changes in intracellular calcium, usually with a dye or a luminescent sensor.)

Experiment [2] addresses T1, 2871 receptor. Briefly: Desensitization of calcium mobilization response by sequential adenosine nucleotide treatment (FLIPR). It counts as cell-based. To be noted: for desensitization of calcium mobilization response to subsequent adenosine nucleotide treatment: additional treatment five to six minutes after initial dose. As for the experimental part: as §1
Furthermore, calcium mobilization response was selectively desensitized treatment with adenosine nucleotide was followed by subsequent treatment with additional adenosine nucleotide. Initial treatment with adenosine nucleotide was followed by additional treatment five to six minutes after initial dose. Treatment and data analysis were as described supra.

One may read the EC50 as the concentration at which the effect is half-maximal.

T1 sequence (Q9BY21 whole entry): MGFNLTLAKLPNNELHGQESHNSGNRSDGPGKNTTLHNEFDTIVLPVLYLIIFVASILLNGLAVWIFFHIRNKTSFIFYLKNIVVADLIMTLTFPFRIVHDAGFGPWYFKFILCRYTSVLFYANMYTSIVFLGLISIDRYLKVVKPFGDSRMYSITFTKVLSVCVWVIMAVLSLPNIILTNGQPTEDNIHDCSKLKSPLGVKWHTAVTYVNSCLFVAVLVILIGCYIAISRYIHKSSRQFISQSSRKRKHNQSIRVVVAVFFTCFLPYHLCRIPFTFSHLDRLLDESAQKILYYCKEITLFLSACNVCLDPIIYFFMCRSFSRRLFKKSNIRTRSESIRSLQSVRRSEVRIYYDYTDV

On to `Nc1ncnc2c1ncn2[C@@H]1O[C@H](COP(=O)(O)OP(=O)(O)O[C@H]2O[C@H](CO)[C@@H](O)[C@H](O)[C@@H]2O)[C@@H](O)[C@H]1O` [ADP-mannose], for which, on 2871 receptor [1], the calcium mobilization response entry is “dose-dependent”.
For `Nc1ncnc2c1ncn2C1OC(COP(=O)(O)OP(=O)(O)OCC2OC(O)C(O)C2O)C(O)C1O` (stereo not shown) [ADP-ribose, adenosine di-phosphate-ribose], on 2871 receptor [1], the calcium mobilization response entry was “dose-dependent” and the EC50 was 0.4 to 0.8 µM.
Regarding `Nc1ncnc2c1ncn2[C@@H]1O[C@H](COP(=O)(O)O)[C@@H](O)[C@H]1O` [AMP, adenosine monophosphate], on 2871 receptor [2], the “desensitization of calcium mobilization response to subsequent adenosine nucleotide treatment” value is on record as “conferred desensitization to subsequent AMP treatment”. Moreover, on 2871 receptor [1], the calcium mobilization response entry is on record as “dose-dependent” and the EC50 lay in the range of 0.5 to 0.8 µM.
For `Nc1ncnc2c1ncn2[C@@H]1O[C@H](COP(=O)(O)OP(=O)(O)OC[C@H]2O[C@@H](n3cnc4c(N)ncnc43)[C@H](O)[C@@H]2O)[C@@H](O)[C@H]1O` [AP2A], at 2871 receptor [1], the calcium mobilization response result is listed as “dose-dependent”.
The same measure, in the same setting: under `Nc1ncnc2c1ncn2[C@@H]1O[C@H](COP(=O)(O)OP(=O)(O)OP(=O)(O)OC[C@H]2O[C@@H](n3cnc4c(N)ncnc43)[C@H](O)[C@@H]2O)[C@@H](O)[C@H]1O` [AP3A] stands “dose-dependent”.
For di-adenosine hexaphosphate [AP6A], the “desensitization of calcium mobilization response to subsequent adenosine nucleotide treatment” value at 2871 receptor [2] is recorded as “effectively desensitized 2871 receptor to subsequent treatment with either AP6A or AMP”. On 2871 receptor [2] (second treatment five to six minutes after initial AMP dose), the “agonist activity after initial AMP treatment” value was “retained agonist activity”. In addition, on 2871 receptor [1], the calcium mobilization response entry is on record as “dose-dependent” and the EC50 was in the range of 0.2 to 0.4 µM.
With di-adenosine pentaphosphate [AP5A], at 2871 receptor [1], the calcium mobilization response result is “dose-dependent” and the EC50 lay within 1.2 to 1.8 µM.
Taken in the same sequence, the figures for di-adenosine tetraphosphate [AP4A] were “dose-dependent” and 1.8 to 2 µM.
